Columns and labels:
Assay type in all cases: cell-based
[1] = test system: E. coli JM109; assay: Inhibition of air-liquid interface biofilm; conditions: added with inoculation, E. coli JM109 in LB 0.2% glucose
Procedure: (§1) Inhibition of biofilm formation by E. coli K12 [R1drd19], P. aeruginosa PAO1, and V harveyi BB120 by the addition of 10 μg/mL ursolic acid. For E. coli K12 [R1drd19], data were collected 16 hours after addition of ursolic acid to a 24 hour biofilm in LB medium; for P. aeruginosa PAO1, data were collected 18 hours after addition of ursolic acid with inoculation in LB medium plus 1% sodium citrate; and for V. harveyi BB120, data were collected 18 hours after addition of ursolic acid with inoculation in M9 medium. All biofilm mass readings at OD540 were normalized based on the reading of wild type without ursolic acid which was normalized to 1. One standard deviation is shown.
Example 1 was repeated, except ursolic acid was added with inoculation in E. coli JM109 grown in LB 0.2% glucose.

[2] = test system: E. coli K12 genes; assay: DNA microarray, genes repressed by ursolic acid
Procedure: To identify the genes controlled by ursolic acid, E. coli K12 was grown in LB medium overnight, diluted 1:100 in fresh LB supplemented with 0, 10, or 30 μg/mL ursolic acid. The same amount of ethanol was supplemented to eliminate solvent effects. The cultures were grown to an OD600 of 0.9. The cells were centrifuged in a microcentrifuge for 15 seconds at 20,000×g in mini bead beater tubes (Biospec, Bartlesville, Okla.) that were cooled to −80° C. before sampling. The cell pellets were flash frozen in a dry ice-ethanol bath and stored at −80° C. until RNA isolation.
To lyse the cells, 1.0 mL RLT buffer (Qiagen, Inc., Valencia, Calif.) and 0.2 mL 0.1 mm zirconia/silica beads (Biospec) were added to the frozen bead beater tubes containing the cell pellets. The tubes were closed tightly and beat for 30 seconds at the maximum speed in a mini bead beater (cat. no. 3110BX, Biospec). The total RNA was isolated by following the protocol of the RNeasy Mini Kit (Qiagen) including an on-column DNase digestion with RNase-free DNase I (Qiagen). OD260 was used to quantify the RNA yield. OD260/OD280 and 23S/16S rRNA were measured using a 2100 Bioanalyzer (Agilent Technologies, Palo Alto, Calif.) to check the purity and integrity of RNA (RNeasy Mini handbook, Qiagen).
The E. coli DNA microarrays were prepared as described previously by Wei, Y. et al (Journal of Bacteriology, 2001, 183 (2) p. 545-556). Each gene probe was synthesized by PCR and has the size of the full open reading frame (200-2000 nt). The double-strand PCR products were denatured in 50% dimethyl sulfoxide and spotted onto aminosilane slides (Full Moon Biosystems, Sunnyvale, Calif.) as probes to hybridize with the mRNA-derived cDNA samples. It has been shown that each array can detect 4228 of the 4290 E. coli ORFs. Each gene has two spots per slide.
Briefly, the total RNA from the E. coli K12 samples grown with and without ursolic acid was first converted into labeled cDNA. […] The Cy3-labeled sample without ursolic acid and the Cy5-labeled ursolic acid sample (with 10 or 30 μg/mL ursolic acid) were hybridized on the first slide. Similarly, the Cy5-labeled sample without ursolic acid and the Cy3-labeled ursolic acid sample were hybridized on the second slide. Since each gene has two spots on a slide, the two hybridizations generated eight data points for each gene (four points for the sample without ursolic acid and four points for the ursolic acid sample). The microarray experiments with dye-swapping were repeated for both concentrations of ursolic acid.
The DNA microarrays were incubated in prehybridization solution (3.5×SSC [1×SSC is 0.15 M NaCl plus 0.015 M sodium citrate] [Invitrogen], 0.1% sodium dodecyl sulfate [SDS] [Invitrogen], and 0.1% bovine serum albumin [Invitrogen]) at 45° C. for 20 min. The arrays were rinsed with double-distilled water and were spun dry by centrifugation. Labeled cDNA (6 μg) was concentrated to 10 μl of total volume and was mixed with 10 μl of 4×cDNA hybridization solution (Full Moon Biosystems) and 20 μl of formamide (EM Science, Gibbstown, N.J.). The hybridization mix was heated to 95° C. for 2 min and was added to the DNA microarrays; each array was covered with a coverslip (Corning, Big Flats, N.Y.) and was incubated overnight at 37° C. for hybridization. When the hybridization was finished, the coverslips were removed in 1×SSC-0.1% SDS at room temperature, and the arrays were washed once for 5 min in 1×SSC-0.1% SDS at 40° C., twice for 10 min in 0.1×SSC-0.1% SDS at 40° C., and twice for 1 min in 0.1×SSC at 40° C. The arrays were quickly rinsed by dipping in room-temperature double-distilled water and were then spun dry by centrifugation. The hybridized slides were scanned with the Generation III Array Scanner (Molecular Dynamics Corp.). Readings at 570 and 670 nm was used to quantify the probes labeled with Cy3 and Cy5 separately. The signal was quantified with Array Vision 4.0 or 6.0 software (Imaging Research, St. Catherines, Ontario, Canada). […]

[3] = test system: P. aeruginosa PAO1; assay: Inhibition of biofilm formation (biofilm mass, OD540)
Procedure: as §1

[4] = test system: E. coli K12 [R1drd19]; assay: as above
Procedure: as §1

[5] = test system: V. harveyi BB120; assay: as above
Procedure: as §1

## C[C@H]1[C@H](C)CC[C@]2(C(=O)O)CC[C@]3(C)C(=CC[C@@H]4[C@@]5(C)CC[C@H](O)C(C)(C)[C@@H]5CC[C@]43C)[C@H]12 [ursolic acid]
[1]
  air-liquid interface biofilm: inhibited air-liquid interface biofilm
[2]; 10 μg/mL ursolic acid
  ER (expression ratio) gene arsC: −1.5
  ER (expression ratio) gene b0309: −1.7
  ER (expression ratio) gene b0484: −1.5
  ER (expression ratio) gene b0485: −1.8
  ER (expression ratio) gene b0829: −1.5
  ER (expression ratio) gene b1729: −5.6
  ER (expression ratio) gene b2379: −1.5
  ER (expression ratio) gene b2789: −1.9
  ER (expression ratio) gene cspF: −1.6
  ER (expression ratio) gene cspG: −2.5
  ER (expression ratio) gene cysB: −1.7
  ER (expression ratio) gene cysD: −2.5
  ER (expression ratio) gene cysI: −1.5
  ER (expression ratio) gene cysJ: −3.6
  ER (expression ratio) gene cysK: −3.6
  ER (expression ratio) gene frvR: −5.4
  ER (expression ratio) gene gntU_1: −1.5
  ER (expression ratio) gene hdeA: −1.7
  ER (expression ratio) gene hdeB: −1.8
  ER (expression ratio) gene narH: −1.6
  ER (expression ratio) gene pheM: −1.6
  ER (expression ratio) gene pheP: −1.5
  ER (expression ratio) gene rimL: −1.5
  ER (expression ratio) gene rmf: −1.5
  ER (expression ratio) gene rpml: −1.6
  ER (expression ratio) gene slp: −1.5
  ER (expression ratio) gene ugpB: −1.4
  ER (expression ratio) gene ybhG: −1.4
  ER (expression ratio) gene ybiK: −2.4
  ER (expression ratio) gene yeeD: −2.3
  ER (expression ratio) gene yeeE: −13
  ER (expression ratio) gene yhaD: −1.6
  ER (expression ratio) gene yhaF: −1.5
  ER (expression ratio) gene yhaG: −2
  ER (expression ratio) gene yhaU: −1.9
  ER (expression ratio) gene yjeB: −1.4
[2]; 30 μg/mL ursolic acid
  ER (expression ratio) gene arsC: 1.4
  ER (expression ratio) gene b0309: −1.3
  ER (expression ratio) gene b0484: −1.1
  ER (expression ratio) gene b0485: −1.3
  ER (expression ratio) gene b0829: −1.5
  ER (expression ratio) gene b1729: −2
  ER (expression ratio) gene b2379: 1
  ER (expression ratio) gene b2789: −2.5
  ER (expression ratio) gene cspF: −1.1
  ER (expression ratio) gene cspG: −1.7
  ER (expression ratio) gene cysB: −1.4
  ER (expression ratio) gene cysD: −2.5
  ER (expression ratio) gene cysI: −1.7
  ER (expression ratio) gene cysJ: −3.3
  ER (expression ratio) gene cysK: −3.3
  ER (expression ratio) gene frvR: −2
  ER (expression ratio) gene gntU_1: −1.4
  ER (expression ratio) gene hdeA: −1.4
  ER (expression ratio) gene hdeB: −1.4
  ER (expression ratio) gene narH: −1.4
  ER (expression ratio) gene pheM: 1
  ER (expression ratio) gene pheP: −1.1
  ER (expression ratio) gene rimL: 1
  ER (expression ratio) gene rmf: 1
  ER (expression ratio) gene rpml: 1
  ER (expression ratio) gene slp: −1.6
  ER (expression ratio) gene ugpB: −1.5
  ER (expression ratio) gene ybhG: −1.4
  ER (expression ratio) gene ybiK: -2.2
  ER (expression ratio) gene yeeD: −1.4
  ER (expression ratio) gene yeeE: −2
  ER (expression ratio) gene yhaD: −2.6
  ER (expression ratio) gene yhaF: −2.4
  ER (expression ratio) gene yhaG: −2.2
  ER (expression ratio) gene yhaU: −4.2
  ER (expression ratio) gene yjeB: 1
[3]
  formation of biofilms: reduces or inhibits the formation of biofilms
[4]
  formation of biofilms: reduces or inhibits the formation of biofilms
[5]
  formation of biofilms: reduces or inhibits the formation of biofilms

— patent US7604978B2, “Inhibition of biofilm formation” (Sequoia Sciences, Inc., priority 2004, dated 2009)
